Test results reported in paper PMC10457740, “Design, Synthesis and Biological Evaluation of Novel PEG-Rakicidin B1 Hybrid as Clostridium difficile (CD) Targeted Anti-Bacterial Agent” (Molecules, 2023).
Where a name gives a salt, the structure may show the parent alone. Read-outs that look alike come from different tables or passages of the source.

Tests used:
[1] = tested on: C. difficile infection (CDI); details: cited from earlier work; for recurrence of CDI: patients, after treatment; for response in patients: treatment of mild to moderate episodes of CDI
CD strain ATCC 43255 = test: CDI mouse model (survival, recurrence, weight, clinical scores)
[2] = tested on: PANC-1 cells (zebrafish pancreatic cancer transplant model); test: In vivo cytotoxicity, zebrafish pancreatic cancer transplant model; details: 48 h, n = 10
PANC-1 = test: In vitro cytotoxicity, CCK-8 assay, PANC-1; type: cell-based; details: Homo sapiens, PANC-1, 48 h
Caco-2 = test: In vitro cytotoxicity, CCK-8 assay, Caco-2; type: cell-based; details: Homo sapiens, Caco-2, 48 h
HCT-8 cells = test: In vitro cytotoxicity, CCK-8 assay, HCT-8; type: cell-based; details: Homo sapiens, HCT-8, 48 h

For `CN[C@H](CC(C)C)C(=O)N[C@H]1C(=O)N[C@@H](CC(N)=O)C(=O)N[C@H]2C(=O)N[C@H]3C(=O)N[C@H](C(=O)N[C@H](C(=O)O)c4cc(O)cc(O)c4-c4cc3ccc4O)[C@H](O)c3ccc(c(Cl)c3)Oc3cc2cc(c3O[C@@H]2O[C@H](CO)[C@@H](O)[C@H](O)[C@H]2O[C@H]2C[C@](C)(N)[C@H](O)[C@H](C)O2)Oc2ccc(cc2Cl)[C@H]1O` [vancomycin], the “recurrence of CDI” value [1] is given as 25–30%, the response in patients [1] is given as “approximately 90%” and the “mortality rate after stopping treatment (recurrence of infection)” value (CD strain ATCC 43255; C57BL/6 mice, vancomycin 20 mg/kg once a day for seven days, monitored until day 21) is given as 40%. The “body weight changes and clinical scores after stopping treatment” value (CD strain ATCC 43255; infected C57BL/6 mice, after seven-day treatment, until day 21) was “significant weight loss and a sharp increase in clinical scores”, the “body weight changes and clinical scores while receiving treatment” value (CD strain ATCC 43255; infected C57BL/6 mice, during seven-day treatment) was “did not experience weight loss or an increase in clinical scores” and the “recurrence of infection after treatment ended” value (CD strain ATCC 43255; infected C57BL/6 mice, monitored until day 21) was “recurrence of infection is observed”.

In the case of `C=C1/C=C/C(=O)N(C)CC(=O)N[C@@H]([C@H](O)C(N)=O)C(=O)O[C@@H]([C@H](C)CCCCCCCCCCCC(C)CC)[C@H](C)C(=O)N1` (stereo partly shown) [Rakicidin B1], the “Fluorescence Intensity (S, Mean ± SE)” value ([2]; 22.4 nM in water) is reported as 773,141 ± 49,850, the “Fluorescence Intensity (S, Mean ± SE)” value ([2]; 67.2 nM in water) is reported as 662,225 ± 41,743 and the “Fluorescence Intensity (S, Mean ± SE)” value ([2]; 201.5 nM in water) is reported as 527,824 ± 34,172. For the same molecule, the inhibition at 0.0224 µM ([2]; Danio rerio, PANC-1, 22.4 nM in water, read-out: Inhibition Rate (%)) was 17%, the inhibition at 0.0672 µM ([2]; Danio rerio, PANC-1, 67.2 nM in water, read-out: Inhibition Rate (%)) was 29% and the inhibition at 0.2015 µM ([2]; Danio rerio, PANC-1, 201.5 nM in water, read-out: Inhibition Rate (%)) was 43%. The IC50 (PANC-1; read-out: IC50 PANC-1, hypoxia (5% CO2, 95% N2), 48 h, CCK-8) was 486 nM, the IC50 (PANC-1; read-out: IC50 PANC-1, normoxia, 48 h drug exposure, CCK-8) was 815 nM and the IC50 (Caco-2; read-out: IC50 Caco-2, hypoxia (5% CO2, 95% N2), 48 h, CCK-8) was 457 nM. The IC50 (Caco-2; read-out: IC50 Caco-2, normoxia, 48 h drug exposure, CCK-8) was 586 nM, the IC50 (HCT-8 cells; read-out: IC50 HCT-8, hypoxia (5% CO2, 95% N2), 48 h, CCK-8) was 430 nM and the IC50 (HCT-8 cells; read-out: IC50 HCT-8, normoxia, 48 h drug exposure, CCK-8) was 519 nM.

For `Cc1ncc([N+](=O)[O-])n1CCO` [metronidazole], the “recurrence of CDI” value [1] is listed as 25–30% and the response in patients [1] is listed as “approximately 90%”.

With `Nc1ccn([C@@H]2O[C@H](CO)[C@@H](O)C2(F)F)c(=O)n1` [gemcitabine hydrochloride] the “Fluorescence Intensity (S, Mean ± SE)” value ([2]; 66.7 µM in water) was 540,311 ± 59,245 ^1 and the inhibition at 66.7 µM ([2]; Danio rerio, PANC-1, 66.7 µM in water, read-out: Inhibition Rate (%)) was 42%.
